Reference: PMC6273138, “Inhibitory Effects of Aschantin on Cytochrome P450 and Uridine 5′-diphospho-glucuronosyltransferase Enzyme Activities in Human Liver Microsomes” (Molecules, 2016)

Experiments:
[1] = biological target: CYP2C9 (Homo sapiens, UniProt P11712); assay: Mechanism-based (time- and concentration-dependent) inactivation of CYP2C9 in human liver microsomes; assay type: in vitro ADME; conditions: CYP2C9-catalyzed diclofenac 4′-hydroxylation
Method: (§1) The microsomes (1 mg/mL) were pre-incubated with various concentrations of aschantin in 50 mM potassium phosphate buffer (pH 7.4) in the presence of NADPH. Aliquots (10 µL) of the incubated mixtures were withdrawn at 5, 10, 15, and 20 min after incubation commenced and added to other tubes containing the CYP substrates (2 µM amodiaquine for CYP2C8, 10 µM diclofenac for CYP2C9, 100 µM [S]-mephenytoin for CYP2C19, or 2 µM midazolam for CYP3A4), 1 mM NADPH, 50 mM potassium phosphate buffer (pH 7.4), and 10 mM MgCl2, in 90 µL reaction mixtures. […] Aliquots (5 µL) of the diluted supernatants were analyzed by LC-MS/MS, as described above.

[2] = biological target: T1, UGT1A1 (Homo sapiens, UniProt P22309); assay: UGT1A1-catalyzed SN-38 glucuronidation inhibition in pooled human liver microsomes; assay type: in vitro ADME; conditions: 0.5 µM SN-38, pooled human liver microsomes
T1 construct: using pooled human liver microsomes incubated with the cocktail of UGT substrates; tissue Corning Life Sciences 452161; host or cells: pooled human liver microsomes
T1 sequence (P22309 26-533): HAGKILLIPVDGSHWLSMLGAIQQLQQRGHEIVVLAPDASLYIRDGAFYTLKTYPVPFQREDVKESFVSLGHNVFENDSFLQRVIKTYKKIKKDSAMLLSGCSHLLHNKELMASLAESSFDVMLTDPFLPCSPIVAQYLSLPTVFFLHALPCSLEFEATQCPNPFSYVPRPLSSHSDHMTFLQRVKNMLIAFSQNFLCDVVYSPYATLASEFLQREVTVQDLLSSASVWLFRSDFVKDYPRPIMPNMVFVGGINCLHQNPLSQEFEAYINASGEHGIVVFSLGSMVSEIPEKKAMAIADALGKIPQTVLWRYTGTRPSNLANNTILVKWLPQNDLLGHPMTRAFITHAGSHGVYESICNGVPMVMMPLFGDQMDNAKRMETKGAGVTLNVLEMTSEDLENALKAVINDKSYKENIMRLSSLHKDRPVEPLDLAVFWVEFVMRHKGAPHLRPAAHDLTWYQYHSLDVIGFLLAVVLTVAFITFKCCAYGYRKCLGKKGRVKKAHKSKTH
Method: (§2) The extents of aschantin on UGT1A1, UGT1A3, UGT1A4, UGT1A6, UGT1A9, and UGT2B7 were evaluated by LC-MS/MS, using pooled human liver microsomes incubated with the cocktail of UGT substrates. The method was modified from that of Joo et al..
(§3) The metabolites formed from the six UGT cocktail substrates were simultaneously measured using the LC-MS/MS method. […] The mass spectrometer was equipped with an ESI source and was operated in both positive and negative ion modes. […] Each metabolite was quantified via SRM in the negative ion (chenodeoxycholic acid 24-acyl-β-glucuronide, 567.2 > 391.0; mycophenolic acid glucuronide, 495.2 > 318.9; propofol glucuronide, 353.3 > 177.1) and positive ion (SN-38 glucuronide, 569.0 > 393.0; trifluoperazine glucuronide, 584.2 > 408.1; N-acetylserotonin-β-D-glucuronide, 395.2 > 219.0; naloxone 3-β-D-glucuronide, 504.0 > 310.0; meloxicam, 352.0 > 115.1) modes.

[3] = biological target: CYP2C19 (Homo sapiens, UniProt P33261); assay: CYP2C19-catalyzed [S]-mephenytoin 4′-hydroxylase inhibition in pooled human liver microsomes; conditions: for IC50: CYP2C19 (S)-mephenytoin 4′-hydroxylase, 100 µM [S]-mephenytoin
Sequence of CYP2C19 (P33261 whole entry): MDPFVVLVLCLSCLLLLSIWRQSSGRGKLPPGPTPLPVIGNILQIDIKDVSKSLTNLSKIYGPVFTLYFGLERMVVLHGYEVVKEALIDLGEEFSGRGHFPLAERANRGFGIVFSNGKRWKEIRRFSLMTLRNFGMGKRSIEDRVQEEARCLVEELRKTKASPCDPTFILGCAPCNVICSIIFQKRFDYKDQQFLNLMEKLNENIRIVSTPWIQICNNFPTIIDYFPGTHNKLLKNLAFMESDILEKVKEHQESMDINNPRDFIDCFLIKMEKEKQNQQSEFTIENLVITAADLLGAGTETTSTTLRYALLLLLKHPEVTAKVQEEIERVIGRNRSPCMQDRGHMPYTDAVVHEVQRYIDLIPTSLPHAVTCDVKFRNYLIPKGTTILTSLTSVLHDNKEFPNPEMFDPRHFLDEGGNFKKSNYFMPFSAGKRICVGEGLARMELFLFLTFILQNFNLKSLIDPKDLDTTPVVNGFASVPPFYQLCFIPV

[4] = biological target: T2, UGT1A4 (Homo sapiens, UniProt P22310); assay: UGT1A4-catalyzed trifluoperazine N-glucuronidation inhibition in pooled human liver microsomes; assay type: in vitro ADME
T2 construct: using pooled human liver microsomes incubated with the cocktail of UGT substrates; tissue Corning Life Sciences 452161; host or cells: pooled human liver microsomes
T2 sequence (P22310 29-534): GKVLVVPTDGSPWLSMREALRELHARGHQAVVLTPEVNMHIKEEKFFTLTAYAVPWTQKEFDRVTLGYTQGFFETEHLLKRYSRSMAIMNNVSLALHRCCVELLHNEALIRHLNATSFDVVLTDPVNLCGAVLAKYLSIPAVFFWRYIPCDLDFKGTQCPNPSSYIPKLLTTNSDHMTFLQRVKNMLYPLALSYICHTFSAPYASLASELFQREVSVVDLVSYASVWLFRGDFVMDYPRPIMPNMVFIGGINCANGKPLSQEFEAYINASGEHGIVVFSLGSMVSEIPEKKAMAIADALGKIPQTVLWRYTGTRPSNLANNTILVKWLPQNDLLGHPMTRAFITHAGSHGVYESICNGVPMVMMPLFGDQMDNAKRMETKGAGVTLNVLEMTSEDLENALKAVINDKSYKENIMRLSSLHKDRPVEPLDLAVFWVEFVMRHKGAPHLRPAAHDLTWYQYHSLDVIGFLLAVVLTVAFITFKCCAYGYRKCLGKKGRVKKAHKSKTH
Method: as §2, §3

[5] = biological target: T3, CYP2C8 (Homo sapiens, UniProt P10632); assay: Mechanism-based (time- and concentration-dependent) inactivation of CYP2C8 in human liver microsomes; assay type: in vitro ADME; conditions: CYP2C8-mediated amodiaquine N-de-ethylation
T3 sequence (P10632 1-490): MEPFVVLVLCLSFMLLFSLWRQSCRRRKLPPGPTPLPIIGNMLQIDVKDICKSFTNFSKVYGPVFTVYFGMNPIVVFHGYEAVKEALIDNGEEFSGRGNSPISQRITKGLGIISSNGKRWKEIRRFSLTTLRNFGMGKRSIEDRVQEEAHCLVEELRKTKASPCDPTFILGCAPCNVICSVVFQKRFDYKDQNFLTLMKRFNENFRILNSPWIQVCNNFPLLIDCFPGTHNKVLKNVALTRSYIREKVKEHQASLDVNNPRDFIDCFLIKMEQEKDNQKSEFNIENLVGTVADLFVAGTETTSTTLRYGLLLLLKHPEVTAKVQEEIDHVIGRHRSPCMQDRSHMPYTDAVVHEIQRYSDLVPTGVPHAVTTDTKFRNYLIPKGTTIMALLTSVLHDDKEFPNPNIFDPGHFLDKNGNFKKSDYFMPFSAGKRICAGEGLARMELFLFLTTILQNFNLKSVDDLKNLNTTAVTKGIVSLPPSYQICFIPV
Method: as §1

Sequence of CYP2C9 (P11712 whole entry): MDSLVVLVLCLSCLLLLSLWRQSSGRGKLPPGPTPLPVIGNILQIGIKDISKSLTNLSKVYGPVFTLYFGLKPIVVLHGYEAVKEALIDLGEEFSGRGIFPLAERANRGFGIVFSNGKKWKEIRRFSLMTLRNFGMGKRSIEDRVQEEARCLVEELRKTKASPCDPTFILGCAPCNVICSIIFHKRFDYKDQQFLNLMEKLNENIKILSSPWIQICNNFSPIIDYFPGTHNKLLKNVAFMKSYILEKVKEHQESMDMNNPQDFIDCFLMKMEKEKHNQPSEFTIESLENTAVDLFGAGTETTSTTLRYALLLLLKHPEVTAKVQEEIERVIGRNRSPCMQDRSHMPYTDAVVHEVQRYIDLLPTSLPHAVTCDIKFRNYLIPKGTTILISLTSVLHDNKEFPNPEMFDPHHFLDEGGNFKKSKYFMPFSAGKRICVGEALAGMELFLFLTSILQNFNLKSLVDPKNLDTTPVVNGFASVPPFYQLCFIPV

Ki ([1]; read-out: Ki (apparent)): 3.7 µM
kinact ([1]; pH 7.4, probe diclofenac (10 µM)): 0.000733 s⁻¹
IC50 [2]: 132 µM
IC50 ([3]; IC50 No Pre-incubation, pooled human liver microsomes, no pre-incubation): 22.7 µM
IC50 ([3]; IC50 With Pre-incubation, 30 min pre-incubation with microsomes and NADPH): 6.1 µM
IC50 shift at 0.5 h ([3]; human, pooled human liver microsomes, pH 7.4, probe [S]-mephenytoin (100 µM), 4′-hydroxylation): > 2.5
IC50 ([4]; UGT1A4-catalyzed trifluoperazine N-glucuronidation, 0.5 µM trifluoperazine, pooled human liver microsomes): > 200 µM
inhibition of UGT1A4-catalyzed trifluoperazine N-glucuronidation ([4]; aschantin at 200 µM, human liver microsomes): not inhibited
Ki ([5]; read-out: Ki (apparent)): 10.2 µM
kinact ([5]; pH 7.4, probe amodiaquine (2 µM)): 0.000933 s⁻¹
SMILES: COc1cc([C@H]2OC[C@H]3[C@@H]2CO[C@@H]3c2ccc3c(c2)OCO3)cc(OC)c1OC [Aschantin]
